The values that follow come from US20240116985A1, “STAPLED PEPTIDES AND METHODS THEREOF” (priority 2020, published 2024).

Usually IC50 stands for the concentration needed to halve the response being measured.

In the assay the target is T1, full-length beta-Catenin (Uniprot ID P35222) (Homo sapiens, UniProt P35222).
T1 construct: 10 nM full-length beta-Catenin (Uniprot ID P35222)
T1 sequence (P35222 1-781): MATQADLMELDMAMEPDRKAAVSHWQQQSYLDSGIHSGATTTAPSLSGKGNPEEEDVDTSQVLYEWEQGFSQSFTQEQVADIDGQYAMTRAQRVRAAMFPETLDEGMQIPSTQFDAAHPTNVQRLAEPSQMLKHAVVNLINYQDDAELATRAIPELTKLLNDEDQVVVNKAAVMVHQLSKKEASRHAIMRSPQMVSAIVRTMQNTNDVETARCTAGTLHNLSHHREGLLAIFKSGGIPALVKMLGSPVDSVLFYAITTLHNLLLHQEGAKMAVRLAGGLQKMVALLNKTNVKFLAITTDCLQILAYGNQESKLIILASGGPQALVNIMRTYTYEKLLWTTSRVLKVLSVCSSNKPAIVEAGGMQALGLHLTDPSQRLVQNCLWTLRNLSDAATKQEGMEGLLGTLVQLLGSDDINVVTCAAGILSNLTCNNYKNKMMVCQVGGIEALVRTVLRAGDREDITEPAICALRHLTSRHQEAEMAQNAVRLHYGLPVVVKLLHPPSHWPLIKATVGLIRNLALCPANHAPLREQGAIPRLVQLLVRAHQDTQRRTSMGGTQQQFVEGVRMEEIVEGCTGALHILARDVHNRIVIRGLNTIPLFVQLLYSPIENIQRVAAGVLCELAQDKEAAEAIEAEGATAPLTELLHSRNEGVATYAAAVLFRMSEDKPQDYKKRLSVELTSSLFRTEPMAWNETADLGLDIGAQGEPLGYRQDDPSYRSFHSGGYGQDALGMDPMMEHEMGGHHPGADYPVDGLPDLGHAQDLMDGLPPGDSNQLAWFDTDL
The assay is described as follows: Fluorescence polarization IC50 (beta-catenin / 5FAM-TCF4 10-53 competition). It is filed as binding. (In fluorescence polarisation assays a small probe gives low polarisation when free and higher when bound to something large.)

The mark [1] stands for this setting: fluorescence polarization; read-out: beta-Catenin FP IC50.
Where [2] appears, read: read-out: beta-Catenin FP IC50; fluorescence polarization.

SMILES strings stand for the structures. Like-named read-outs stand apart in the source and are kept apart here.

With `CC(=O)N1CCC[C@]12CC=CCCCC1(CCCC=CCCCOC(=O)N3CC[C@@](C(=O)N[C@@H](Cc4ccsc4)C(=O)N[C@@H](Cc4csc5ccccc45)C(=O)N[C@@H](CCC(N)=O)C(N)=O)(C3)NC(=O)[C@H](CC(C)C)NC(=O)[C@H](Cc3ccccc3)NC(=O)[C@H](C)NC(=O)[C@H](C)NC(=O)[C@H](CC(=O)O)NC(=O)[C@H](CC(=O)S)NC1=O)NC(=O)[C@H](CC(C)(C)C)NC(=O)[C@H](CC(=O)O)NC2=O` (stereo partly drawn) [I-1944, Ac-PL3-Asp-Npg-B5-AspSH-Asp-Ala-Ala-Phe-Leu-PyrS2-3Thi-BztA-Gln-NH2], under setting [1], the IC50 was determined as 1630 nM.

Regarding `CC(=O)N1CCC[C@]12CC=CCCCC1(CCCC=CCCCOC(=O)N3CC[C@@](C(=O)N[C@@H](Cc4ccsc4)C(=O)N[C@@H](Cc4csc5ccccc45)C(=O)N[C@@H](CCC(N)=O)C(N)=O)(C3)NC(=O)[C@H](CC(C)C)NC(=O)[C@H](Cc3ccccc3)NC(=O)[C@H](C)NC(=O)[C@H](C)NC(=O)[C@H](CC(=O)O)NC(=O)[C@H](CC(=O)S)NC1=O)NC(=O)[C@H](CC(C)(C)C)NC(=O)[C@H](CC(=O)O)NC2=O` (stereo partly drawn) [I-1945, Ac-PL3-Asp-Npg-B5-AspSH-Asp-Ala-Ala-Phe-Leu-PyrS2-3Thi-BztA-Gln-NH2], under setting [1], the IC50 came out at 918 nM.

For `CC(=O)N1CCC[C@]12CC=CCCCC1(CCCC=CCCCOC(=O)N3CC[C@@](C(=O)N[C@@H](Cc4ccsc4)C(=O)N[C@@H](Cc4csc5ccccc45)C(=O)N[C@@H](CCC(N)=O)C(N)=O)(C3)NC(=O)[C@H](CC(C)C)NC(=O)[C@H](Cc3ccccc3)NC(=O)[C@H](C)NC(=O)[C@H](C)NC(=O)[C@H](CC(=O)S)NC(=O)[C@H](CC(=O)O)NC1=O)NC(=O)[C@H](CC(C)(C)C)NC(=O)[C@H](CC(=O)O)NC2=O` (stereo partly drawn) [I-1946, Ac-PL3-Asp-Npg-B5-Asp-AspSH-Ala-Ala-Phe-Leu-PyrS2-3Thi-BztA-Gln-NH2], the IC50 under setting [1] came to 874 nM.

Turning to `CC(=O)N1CCC[C@]12CC=CCCCC1(CCCC=CCCCOC(=O)N3CC[C@@](C(=O)N[C@@H](Cc4ccsc4)C(=O)N[C@@H](Cc4csc5ccccc45)C(=O)N[C@@H](CCC(N)=O)C(N)=O)(C3)NC(=O)[C@H](CC(C)C)NC(=O)[C@H](Cc3ccccc3)NC(=O)[C@H](C)NC(=O)[C@H](C)NC(=O)[C@H](CC(=O)S)NC(=O)[C@H](CC(=O)O)NC1=O)NC(=O)[C@H](CC(C)(C)C)NC(=O)[C@H](CC(=O)O)NC2=O` (stereo partly drawn) [I-1947, Ac-PL3-Asp-Npg-B5-Asp-AspSH-Ala-Ala-Phe-Leu-PyrS2-3Thi-BztA-Gln-NH2], under setting [1], the IC50 worked out at 253 nM.

Consider `CC(=O)N1CCC[C@]12CC=CCCCC1(CCCC=CCCCOC(=O)N3CC[C@@](C(=O)N[C@@H](Cc4ccsc4)C(=O)N[C@@H](Cc4csc5ccccc45)C(=O)N[C@@H](CCC(N)=O)C(N)=O)(C3)NC(=O)[C@H](CC(C)C)NC(=O)[C@H](Cc3ccccc3)NC(=O)[C@H](C)NC(=O)[C@H](C)NC(=O)[C@H](CCC(=O)S)NC(=O)[C@H](CC(=O)O)NC1=O)NC(=O)[C@H](CC(C)(C)C)NC(=O)[C@H](CC(=O)O)NC2=O` (stereo partly drawn) [I-1948, Ac-PL3-Asp-Npg-B5-Asp-GluSH-Ala-Ala-Phe-Leu-PyrS2-3Thi-BztA-Gln-NH2], for which, under setting [1], the IC50 is 1330 nM.

As for `CC(=O)N1CCC[C@]12CC=CCCCC1(CCCC=CCCCOC(=O)N3CC[C@@](C(=O)N[C@@H](Cc4ccsc4)C(=O)N[C@@H](Cc4csc5ccccc45)C(=O)N[C@@H](CCC(N)=O)C(N)=O)(C3)NC(=O)[C@H](CC(C)C)NC(=O)[C@H](Cc3ccccc3)NC(=O)[C@H](C)NC(=O)[C@H](C)NC(=O)[C@H](CC(=O)O)NC(=O)[C@H](CC(=O)OCCSSc3ccccn3)NC1=O)NC(=O)[C@H](CC(C)(C)C)NC(=O)[C@H](CC(=O)O)NC2=O` (stereo partly drawn) [I-1950, Ac-PL3-Asp-Npg-B5-[EtSSpy]AspE-Asp-Ala-Ala-Phe-Leu-PyrS2-3Thi-BztA-Gln-NH2], the IC50 under setting [1] was 234 nM.

On to `CC(=O)N1CCC[C@]12CC=CCCCC1(CCCC=CCCCOC(=O)N3CC[C@@](C(=O)N[C@@H](Cc4ccsc4)C(=O)N[C@@H](Cc4csc5ccccc45)C(=O)N[C@@H](CCC(N)=O)C(N)=O)(C3)NC(=O)[C@H](CC(C)C)NC(=O)[C@H](Cc3ccccc3)NC(=O)[C@H](C)NC(=O)[C@H](C)NC(=O)[C@H](CC(=O)O)NC(=O)[C@H](CC(=O)OCCSSc3ccccc3)NC1=O)NC(=O)[C@H](CC(C)(C)C)NC(=O)[C@H](CC(=O)O)NC2=O` (stereo partly drawn) [I-1955, Ac-PL3-Asp-Npg-B5-[EtSSPh]AspE-Asp-Ala-Ala-Phe-Leu-PyrS2-3Thi-BztA-Gln-NH2], for which the IC50 under setting [2] was determined as 1200 nM.

Compound `CC(=O)N1CCC[C@]12CC=CCCCC1(CCCC=CCCCOC(=O)N3CC[C@@](C(=O)N[C@@H](Cc4ccsc4)C(=O)N[C@@H](Cc4csc5ccccc45)C(=O)N[C@@H](CCC(N)=O)C(N)=O)(C3)NC(=O)[C@H](CC(C)C)NC(=O)[C@H](Cc3ccccc3)NC(=O)[C@H](C)NC(=O)[C@H](C)NC(=O)[C@H](CC(=O)OCCSSc3ccccc3)NC(=O)[C@H](CC(=O)O)NC1=O)NC(=O)[C@H](CC(C)(C)C)NC(=O)[C@H](CC(=O)O)NC2=O` (stereo partly drawn) [I-1956, Ac-PL3-Asp-Npg-B5-Asp-[EtSSPh]AspE-Ala-Ala-Phe-Leu-PyrS2-3Thi-BztA-Gln-NH2] showed an IC50 (beta-Catenin FP IC50 (nM), fluorescence polarization) of 849 nM.

With `CC(=O)N1CCC[C@]12CC=CCCCC1(CCCC=CCCCOC(=O)N3CC[C@@](C(=O)N[C@@H](Cc4ccsc4)C(=O)N[C@@H](Cc4csc5ccccc45)C(=O)N[C@@H](CCC(N)=O)C(N)=O)(C3)NC(=O)[C@H](CC(C)C)NC(=O)[C@H](Cc3ccccc3)NC(=O)[C@H](C)NC(=O)[C@H](C)NC(=O)[C@H](CCC(=O)OCCSSc3ccccc3)NC(=O)[C@H](CC(=O)O)NC1=O)NC(=O)[C@H](CC(C)(C)C)NC(=O)[C@H](CC(=O)O)NC2=O` (stereo partly drawn) [I-1957, Ac-PL3-Asp-Npg-B5-Asp-[EtSSPh]GluE-Ala-Ala-Phe-Leu-PyrS2-3Thi-BztA-Gln-NH2], the IC50 under setting [2] was 567 nM.

In the case of `CCCCCCSSCCOC(=O)C[C@@H]1NC(=O)[C@]2(CC=CCCCC3(CCCC=CCCCOC(=O)N4CC[C@@](C(=O)N[C@@H](Cc5ccsc5)C(=O)N[C@@H](Cc5csc6ccccc56)C(=O)N[C@@H](CCC(N)=O)C(N)=O)(C4)NC(=O)[C@H](CC(C)C)NC(=O)[C@H](Cc4ccccc4)NC(=O)[C@H](C)NC(=O)[C@H](C)NC(=O)[C@H](CC(=O)O)NC(=O)[C@H](CC(=O)O)NC3=O)NC(=O)[C@H](CC(C)(C)C)NC1=O)CCCN2C(C)=O` (stereo partly drawn) [I-1960, Ac-PL3-[EtSSHex]AspE-Npg-B5-Asp-Asp-Ala-Ala-Phe-Leu-PyrS2-3Thi-BztA-Gln-NH2], under setting [1], the IC50 is 544 nM.

As to `CCSSCCOC(=O)C[C@@H]1NC(=O)C2(CCCC=CCCCOC(=O)N3CC[C@@](C(=O)N[C@@H](Cc4ccsc4)C(=O)N[C@@H](Cc4csc5ccccc45)C(=O)N[C@@H](CCC(N)=O)C(N)=O)(C3)NC(=O)[C@H](CC(C)C)NC(=O)[C@H](Cc3ccccc3)NC(=O)[C@H](C)NC(=O)[C@H](C)NC(=O)[C@H](CC(=O)O)NC1=O)CCCC=CC[C@]1(CCCN1C(C)=O)C(=O)N[C@@H](CC(=O)O)C(=O)N[C@@H](CC(C)(C)C)C(=O)N2` (stereo partly drawn) [I-1964, Ac-PL3-Asp-Npg-B5-[EtSSEt]AspE-Asp-Ala-Ala-Phe-Leu-PyrS2-3Thi-BztA-Gln-NH2], the IC50 under setting [1] was found to be 738 nM.

As for `CCSSCCOC(=O)CC[C@@H]1NC(=O)[C@H](CC(=O)O)NC(=O)C2(CCCC=CCCCOC(=O)N3CC[C@@](C(=O)N[C@@H](Cc4ccsc4)C(=O)N[C@@H](Cc4csc5ccccc45)C(=O)N[C@@H](CCC(N)=O)C(N)=O)(C3)NC(=O)[C@H](CC(C)C)NC(=O)[C@H](Cc3ccccc3)NC(=O)[C@H](C)NC(=O)[C@H](C)NC1=O)CCCC=CC[C@]1(CCCN1C(C)=O)C(=O)N[C@@H](CC(=O)O)C(=O)N[C@@H](CC(C)(C)C)C(=O)N2` (stereo partly drawn) [I-1966, Ac-PL3-Asp-Npg-B5-Asp-[EtSSEt]GluE-Ala-Ala-Phe-Leu-PyrS2-3Thi-BztA-Gln-NH2], the IC50 under setting [1] came out at 566 nM.

As for `CC(=O)N1CCC[C@]12CC=CCCCC1(CCCC=CCCCOC(=O)N3CC[C@@](C(=O)N[C@@H](Cc4ccsc4)C(=O)N[C@@H](Cc4csc5ccccc45)C(=O)N[C@@H](CCC(N)=O)C(N)=O)(C3)NC(=O)[C@H](CC(C)C)NC(=O)[C@H](Cc3ccccc3)NC(=O)[C@H](C)NC(=O)[C@H](C)NC(=O)[C@H](CN3CCC[C@@H](C(=O)O)C3)NC(=O)[C@H](CC(=O)O)NC1=O)NC(=O)[C@H](CC(C)(C)C)NC(=O)[C@H](CC(=O)O)NC2=O` (stereo partly drawn) [I-1967, Ac-PL3-Asp-Npg-B5-Asp-R3COOPipA-Ala-Ala-Phe-Leu-PyrS2-3Thi-BztA-Gln-NH2], the IC50 under setting [1] amounted to 14 nM.

Take `CC(=O)N1CCC[C@]12CC=CCCCC1(CCCC=CCCCOC(=O)N3CC[C@@](C(=O)N[C@@H](Cc4ccsc4)C(=O)N[C@@H](Cc4csc5ccccc45)C(=O)N[C@@H](CCC(N)=O)C(N)=O)(C3)NC(=O)[C@H](CC(C)C)NC(=O)[C@H](Cc3ccccc3)NC(=O)[C@H](C)NC(=O)[C@H](C)NC(=O)[C@H](CN3CCCC[C@H]3C(=O)O)NC(=O)[C@H](CC(=O)O)NC1=O)NC(=O)[C@H](CC(C)(C)C)NC(=O)[C@H](CC(=O)O)NC2=O` (stereo partly drawn) [I-1968, Ac-PL3-Asp-Npg-B5-Asp-S2COOPipA-Ala-Ala-Phe-Leu-PyrS2-3Thi-BztA-Gln-NH2]: the IC50 under setting [1] amounted to 29 nM.
